Data taken from article PMC3063124 (The Journal of neuroscience : the official journal of the …, 2011).
Like-named read-outs stand apart in the source and are kept apart here.

Columns and labels:
Assay type in all cases: cell-based
[1] = biological target: GluN1/2A-(2D S2) chimera (Rattus norvegicus, UniProt Q00959+Q62645); assay: Two-electrode voltage-clamp recordings, chimeric receptor in Xenopus oocytes
[2] = biological target: GluN1/GluN2D Y723A (Rattus norvegicus, UniProt Q62645, Y723A); assay: Two-electrode voltage-clamp recordings, mutant receptor in Xenopus oocytes
GluN1/GluN2D Y723A (Rattus norvegicus, UniProt Q62645, Y723A), sequence (Q62645 28-1323 Y723A, other chains not shown): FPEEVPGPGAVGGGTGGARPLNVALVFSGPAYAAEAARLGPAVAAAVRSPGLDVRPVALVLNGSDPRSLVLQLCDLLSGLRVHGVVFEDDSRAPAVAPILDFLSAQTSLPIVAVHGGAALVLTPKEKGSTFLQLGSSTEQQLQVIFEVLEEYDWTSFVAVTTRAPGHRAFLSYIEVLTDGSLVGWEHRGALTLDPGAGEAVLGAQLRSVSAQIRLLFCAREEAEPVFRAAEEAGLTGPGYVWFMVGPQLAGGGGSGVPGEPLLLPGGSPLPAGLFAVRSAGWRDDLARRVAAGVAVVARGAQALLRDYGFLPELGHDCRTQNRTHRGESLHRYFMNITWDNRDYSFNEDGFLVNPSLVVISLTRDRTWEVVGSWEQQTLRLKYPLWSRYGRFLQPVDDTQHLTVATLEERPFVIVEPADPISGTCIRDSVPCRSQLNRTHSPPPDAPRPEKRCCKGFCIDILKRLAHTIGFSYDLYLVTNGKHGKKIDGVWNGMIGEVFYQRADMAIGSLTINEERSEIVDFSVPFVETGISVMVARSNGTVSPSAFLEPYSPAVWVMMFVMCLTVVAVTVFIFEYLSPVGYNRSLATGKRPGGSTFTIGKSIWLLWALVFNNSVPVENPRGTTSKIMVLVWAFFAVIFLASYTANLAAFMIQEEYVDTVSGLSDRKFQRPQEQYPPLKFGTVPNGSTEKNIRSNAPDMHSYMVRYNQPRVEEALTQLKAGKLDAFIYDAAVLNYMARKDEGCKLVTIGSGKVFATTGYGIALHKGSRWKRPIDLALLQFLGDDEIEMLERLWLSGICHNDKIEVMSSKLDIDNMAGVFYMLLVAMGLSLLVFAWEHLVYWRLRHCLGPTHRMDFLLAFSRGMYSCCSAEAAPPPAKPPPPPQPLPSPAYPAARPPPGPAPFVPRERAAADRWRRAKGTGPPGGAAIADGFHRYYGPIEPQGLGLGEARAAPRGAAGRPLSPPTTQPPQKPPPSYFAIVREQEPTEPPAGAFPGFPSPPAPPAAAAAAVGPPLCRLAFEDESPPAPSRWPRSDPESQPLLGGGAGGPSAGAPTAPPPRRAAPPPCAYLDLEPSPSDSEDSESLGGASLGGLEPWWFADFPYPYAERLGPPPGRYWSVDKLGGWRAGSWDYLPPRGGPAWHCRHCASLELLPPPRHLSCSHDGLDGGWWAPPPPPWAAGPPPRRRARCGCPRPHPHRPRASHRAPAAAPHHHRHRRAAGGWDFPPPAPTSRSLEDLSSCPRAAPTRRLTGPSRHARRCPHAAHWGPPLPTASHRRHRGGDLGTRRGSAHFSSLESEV

[3] = biological target: GluN1/GluN2D Y723A (Rattus norvegicus, UniProt P35439+Q62645, Y723A); assay: as above
GluN1/GluN2D Y723A (Rattus norvegicus, UniProt P35439+Q62645, Y723A), sequence (Q62645 28-1323 Y723A, other chains not shown): as above

[4] = biological target: GluN1/GluN2D Q701Y (Rattus norvegicus, UniProt Q62645, Q701Y); assay: as above
GluN1/GluN2D Q701Y (Rattus norvegicus, UniProt Q62645, Q701Y), sequence (Q62645 28-1323 Q701Y, other chains not shown): as the sequence (Q62645 28-1323 Y723A, other chains not shown) above, with Q674Y, A696Y counted along it

[5] = biological target: GluN1/GluN2D Q701Y (Rattus norvegicus, UniProt P35439+Q62645, Q701Y); assay: as above
GluN1/GluN2D Q701Y (Rattus norvegicus, UniProt P35439+Q62645, Q701Y), sequence (Q62645 28-1323 Q701Y, other chains not shown): as the sequence (Q62645 28-1323 Y723A, other chains not shown) above, with Q674Y, A696Y counted along it

[6] = biological target: GluN1/GluN2D L705F (Rattus norvegicus, UniProt Q62645, L705F); assay: as above
GluN1/GluN2D L705F (Rattus norvegicus, UniProt Q62645, L705F), sequence (Q62645 28-1323 L705F, other chains not shown): as the sequence (Q62645 28-1323 Y723A, other chains not shown) above, with L678F, A696Y counted along it

[7] = biological target: GluN1/GluN2D L705F (Rattus norvegicus, UniProt P35439+Q62645, L705F); assay: as above
GluN1/GluN2D L705F (Rattus norvegicus, UniProt P35439+Q62645, L705F), sequence (Q62645 28-1323 L705F, other chains not shown): as the sequence (Q62645 28-1323 Y723A, other chains not shown) above, with L678F, A696Y counted along it

[8] = biological target: GluN1/GluN2C (Rattus norvegicus, UniProt Q00961)
GluN1/GluN2C, sequence (Q00961 20-1237, other chains not shown): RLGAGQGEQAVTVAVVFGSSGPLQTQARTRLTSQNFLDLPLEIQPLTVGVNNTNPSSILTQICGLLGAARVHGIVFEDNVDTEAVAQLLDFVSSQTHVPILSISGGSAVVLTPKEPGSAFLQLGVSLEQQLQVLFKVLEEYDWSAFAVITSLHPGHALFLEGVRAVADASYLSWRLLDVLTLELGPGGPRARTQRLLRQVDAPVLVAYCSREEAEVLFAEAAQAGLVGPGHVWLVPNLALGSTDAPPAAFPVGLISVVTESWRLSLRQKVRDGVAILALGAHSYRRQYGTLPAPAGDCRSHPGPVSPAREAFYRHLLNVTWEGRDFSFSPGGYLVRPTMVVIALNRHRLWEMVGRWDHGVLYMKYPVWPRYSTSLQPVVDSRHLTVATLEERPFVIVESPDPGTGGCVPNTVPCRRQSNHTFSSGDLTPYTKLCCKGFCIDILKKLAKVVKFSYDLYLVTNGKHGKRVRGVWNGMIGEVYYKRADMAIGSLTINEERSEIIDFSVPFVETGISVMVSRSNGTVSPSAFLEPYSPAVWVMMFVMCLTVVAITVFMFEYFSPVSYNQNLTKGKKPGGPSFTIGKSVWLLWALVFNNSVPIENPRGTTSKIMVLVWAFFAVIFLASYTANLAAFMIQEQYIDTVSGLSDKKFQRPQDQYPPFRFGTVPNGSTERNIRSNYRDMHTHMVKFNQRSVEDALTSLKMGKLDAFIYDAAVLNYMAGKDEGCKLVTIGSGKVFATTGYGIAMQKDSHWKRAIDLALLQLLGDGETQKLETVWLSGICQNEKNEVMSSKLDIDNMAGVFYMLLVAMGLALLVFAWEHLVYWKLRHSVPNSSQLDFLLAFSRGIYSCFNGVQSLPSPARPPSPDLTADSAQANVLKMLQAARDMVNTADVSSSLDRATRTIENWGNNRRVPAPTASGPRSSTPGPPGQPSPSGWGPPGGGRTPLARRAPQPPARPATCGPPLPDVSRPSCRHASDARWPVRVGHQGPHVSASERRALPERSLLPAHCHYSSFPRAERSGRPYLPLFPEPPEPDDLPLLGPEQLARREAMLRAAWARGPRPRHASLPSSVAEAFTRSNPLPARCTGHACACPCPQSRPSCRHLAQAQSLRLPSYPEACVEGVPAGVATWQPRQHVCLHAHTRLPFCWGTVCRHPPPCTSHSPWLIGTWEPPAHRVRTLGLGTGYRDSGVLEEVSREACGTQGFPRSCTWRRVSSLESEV

[9] = biological target: GluN1/GluN2D Y729A (Rattus norvegicus, UniProt Q62645, Y729A); assay: Two-electrode voltage-clamp recordings, mutant receptor in Xenopus oocytes
GluN1/GluN2D Y729A (Rattus norvegicus, UniProt Q62645, Y729A), sequence (Q62645 28-1323 Y729A, other chains not shown): as the sequence (Q62645 28-1323 Y723A, other chains not shown) above, with A696Y, Y702A counted along it

[10] = biological target: GluN1/GluN2D Y729A (Rattus norvegicus, UniProt P35439+Q62645, Y729A); assay: as above
GluN1/GluN2D Y729A (Rattus norvegicus, UniProt P35439+Q62645, Y729A), sequence (Q62645 28-1323 Y729A, other chains not shown): as the sequence (Q62645 28-1323 Y723A, other chains not shown) above, with A696Y, Y702A counted along it

[11] = biological target: GluN1/GluN2D (Rattus norvegicus, UniProt Q62645)
GluN1/GluN2D (Rattus norvegicus, UniProt Q62645), sequence (Q62645 28-1323, other chains not shown): as the sequence (Q62645 28-1323 Y723A, other chains not shown) above, with A696Y counted along it

[12] = biological target: GluN1/GluN2D (Rattus norvegicus, UniProt P35439+Q62645)
GluN1/GluN2D (Rattus norvegicus, UniProt P35439+Q62645), sequence (Q62645 28-1323, other chains not shown): as the sequence (Q62645 28-1323 Y723A, other chains not shown) above, with A696Y counted along it

[13] = 1 μM QNZ46 plus glycine continuously present, after removal of glutamate
[14] = 3 μM QNZ46 plus glycine continuously present, after removal of glutamate

SMILES: COc1ccc2nc(/C=C/c3cccc([N+](=O)[O-])c3)n(-c3ccc(C(=O)O)cc3)c(=O)c2c1 [QNZ46, (E)-4-(6-methoxy-2-(3-nitrostyryl)-4-oxoquinazolin-3(4H)-yl)-benzoic acid]
- nH (Hill slope) [1]: 1.1
- Relative IC50 (IC50 2X / IC50 2D) ([1]; fold shift relative to GluN2D): 1.2
- nH (Hill slope) [2]: 1.3
- Relative IC50 (IC50 2X / IC50 2D) ([2]; fold shift relative to GluN2D): 1.9
- IC50 [3]: 7.6 ± 0.6 µM
- nH (Hill slope) [4]: 1.0
- Relative IC50 (IC50 2X / IC50 2D) ([4]; fold shift relative to GluN2D): 2.0
- IC50 [5]: 7.7 ± 0.7 µM
- nH (Hill slope) [6]: 1.1
- Relative IC50 (IC50 2X / IC50 2D) ([6]; fold shift relative to GluN2D): 5.9
- IC50 [7]: 23 ± 2 µM
- nH (Hill slope) [8]: 1.0
- Relative IC50 (IC50 2X / IC50 2D) ([8]; fold shift relative to GluN1/GluN2D): 1.8
- nH (Hill slope) [9]: 1.0
- Relative IC50 (IC50 2X / IC50 2D) ([9]; fold shift relative to GluN2D): 0.2
- IC50 [10]: 0.7 ± 0.04 µM
- τinhibition ([11]; 1 μM QNZ46 applied after activation): 356 ± 6 ms
- Deactivation % slow ([11]; 1 μM QNZ46 plus glycine continuously present): 78%
- Deactivation τfast [11, 13]: 1210 ± 150 ms
- Deactivation τslow [11, 13]: 5640 ± 160 ms
- τinhibition ([11]; 1 μM QNZ46 present before, during, and after activation): 344 ± 6 ms
- τinhibition ([11]; 3 μM QNZ46 applied after activation): 268 ± 11 ms
- Deactivation % slow ([11]; 3 μM QNZ46 plus glycine continuously present): 79%
- Deactivation τfast [11, 14]: 1340 ± 50 ms
- Deactivation τslow [11, 14]: 7100 ± 180 ms
- τinhibition ([11]; 3 μM QNZ46 present before, during, and after activation): 244 ± 5 ms
- voltage-dependence of inhibition ([11]; 10 μM QNZ46, 1000 μM glutamate plus 100 μM glycine): independent of membrane holding potential
- τinhibition ([11]; 10 μM QNZ46 applied after activation): 145 ± 13 ms
- Deactivation % slow ([11]; 10 μM QNZ46 plus glycine continuously present): 100%
- Deactivation τslow ([11]; 10 μM QNZ46 plus glycine continuously present, mono-exponential fit): 8150 ± 330 ms
- τinhibition ([11]; 10 μM QNZ46 present before, during, and after activation): 116 ± 3 ms
- τinhibition ([11]; 20 μM QNZ46 applied after activation): 91 ± 11 ms
- Deactivation % slow ([11]; 20 μM QNZ46 plus glycine continuously present): 100%
- Deactivation τslow ([11]; 20 μM QNZ46 plus glycine continuously present, mono-exponential fit): 10130 ± 280 ms
- τinhibition ([11]; 20 μM QNZ46 present before, during, and after activation): 74 ± 2 ms
- increase in QNZ46 potency by glutamate binding to GluN2D ([11]; IC50 with glutamate vs glycine alone or no agonists): > 10 fold
- τoff for QNZ46 ([11]; continuous presence of glutamate): 460 ms
- dependence of inhibition on agonist concentration ([11]; increasing concentrations of glutamate or glycine): independent of agonist concentration
- increase of time constants for deactivation (τweighted) in the presence of QNZ46 ([11]; up to, QNZ46 1 – 20 μM, after removal of glutamate): ~ 2 fold
- Kd [12]: 4.9 µM
